Test results from the OligoGym collection.
Several values for one entry are separate records, joined by “and”; a condition that tells them apart may be missing. Equal entries are not always repeated. After the bases stand the sugars from the 5' end (letter, count) and the backbone: PS all phosphorothioate, else s phosphorothioate and o phosphodiester by linkage. Methylation of C is not given here. e = 2'-O-(2-methoxyethyl) (MOE); l = locked nucleic acid (LNA); k = constrained ethyl (cEt); d = 2'-deoxy (DNA)

How the values were obtained:
ANGPTL2 = conditions: ASO
KRAS = conditions: ASO

Row | Sequence | target mRNA inhibition (ANGPTL2; 5 µM) | target mRNA inhibition (ANGPTL2; 25 µM) | target mRNA inhibition (KRAS; A431, 2 µM) [%] | further results
1 | GAGTTTGGATCATAGAA (sugars l4 d10 l3, PS) | 41.2% | 65.8% |  | 
2 | TTATAAAGACAAGAGCCT (sugars l3 d12 l3, PS) | 34.5% | 47.3% |  | 
3 | CTGGTTGATGATGCGGTTG (sugars l1 d16 l2, PS) | 52.7% | 60.5% |  | 
4 | AAGCTGTTGAAATGTATG (sugars l3 d11 l4, PS) | 41.3% | 30.4% |  | 
5 | CATCTAAGGAATGTGGT (sugars l4 d11 l2, PS) | 63.7% | 71.9% |  | 
6 | CCTGGTAAAATCTTACA (sugars l3 d11 l3, PS) | 37.4% | 48.2% |  | 
7 | GTGCCAAATCCTAGACA (sugars l2 d13 l2, PS) | 54.5% | 68.2% |  | 
8 | GTTTCTGACAAAGCCCG (sugars l1 d13 l3, PS) | 79.6% | 84.3% |  | 
9 | ACTAAATGAACTTCCACA (sugars l4 d11 l3, PS) | 44.6% | 64.9% |  | 
10 | CTAGATTTCTTTCAGTTTG (sugars l2 d14 l3, PS) | 62.7% and 67.4% | 67.5% and 77.3% |  | 
11 | ACCATTTTGAGATTCCCC (sugars l1 d15 l2, PS) | -8.3% | 18.9% |  | 
12 | CCATTTTGAGATTCCCC (sugars l1 d14 l2, PS) | 26.4% | 11.8% |  | 
13 | GAAATGTTATCTAATACT (sugars l4 d10 l4, PS) | 34.5% | 49% |  | 
14 | GCATTCCTCAGACAAATC (sugars l2 d14 l2, PS) | 43.6% | 56.9% |  | 
15 | TTCTGGTAGTGGGCACAG (sugars l1 d15 l2, PS) | 36.8% | 37.1% |  | 
16 | GAATTTTCTTTACCTTAG (sugars l4 d11 l3, PS) | 41.4% | 56% |  | 
17 | GATGATGCGGTTGTAGG (sugars l2 d13 l2, PS) | 67% | 78% |  | 
18 | CAAGAGGGAGGGGAGGACA (sugars l1 d16 l2, PS) | 36.8% | 42.9% |  | 

Row | Sequence | target mRNA inhibition (ANGPTL2; 5 µM) | target mRNA inhibition (ANGPTL2; 25 µM) | target mRNA inhibition (KRAS; A431, 2 µM) [%] | further results
19 | TAGCAGATGGGGCACAA (sugars l1 d12 l4, PS) | 22.9% | 12.4% |  | 
20 | TTATAGGGTGGAATAAA (sugars l4 d9 l4, PS) | 18.2% | 26.9% |  | 
21 | TCAGTGGTGAGATGGGTCAC (sugars l1 d17 l2, PS) | 29.1% | 40.7% |  | 
22 | GTGTTTATGCAATGTT (sugars kkdddddddddkekek, PS) |  |  | 65 | target mRNA inhibition (KRAS; A431, 0.185 µM): 22%; target mRNA inhibition (KRAS; A431, 0.556 µM): 54%; target mRNA inhibition (KRAS; A431, 1.667 µM): 77%; target mRNA inhibition (KRAS; A431, 5 µM): 83%
23 | TCCAGTGATACTTTCA (sugars kkddddddddkekekk, PS) |  |  | 24 | 
24 | ATTGTGCTGAGCTTGA (sugars kddddddddddkekek, PS) |  |  | 34 | 
25 | TCTTATGGTTAGGGGA (sugars k3 d10 k3, PS) |  |  | 8 | 
26 | AATGCTAATAATTTAG (sugars k3 d10 k3, PS) |  |  | 0 | 
27 | CATGTAAATATAGCCC (sugars k3 d10 k3, PS) |  |  | 5 | 
28 | ACCATTCAAAGTTCAC (sugars kkkdddddddddkeke, PS) |  |  | 30 | 
29 | ATCAACTGCATGCACC (sugars k3 d10 k3, PS) |  |  | 42 | 
30 | TATCTTGTTGAGCTAT (sugars k3 d10 k3, PS) |  |  | 33 | 
31 | ACTCTCTATGAAAGCT (sugars k3 d10 k3, PS) |  |  | 29 | 
32 | ATTGTGCTGAGCTTGA (sugars kkddddddddkekekk, PS) |  |  | 31 | 
33 | CTTATGCAGAGAAAAC (sugars k3 d10 k3, PS) |  |  | 8 | 
34 | CTTGATTTGTCAGCAG (sugars kkdddddddddkekek, PS) |  |  | 49 | 
35 | AAATCTGAATTAGTCT (sugars k3 d10 k3, PS) |  |  | 25 | 
